{"source": "ChEMBL document CHEMBL6103658", "about": "“Designing Macrocyclic Kinase Inhibitors Using Macrocycle Scaffold Hopping with Reinforced Learning (Macro-Hop)” (J Med Chem, 2025)", "key": {"[1]": {"assay": "Induction of apoptosis in mouse BaF3 cells expressing PDGFR-alpha D842V mutant (unknown origin) assessed as early apoptotic cells at 40 nM incubated for 48 hrs by V-PE/7-AAD staining based flow cytometry (reference value: 4.20 %)", "assay_type": "functional"}, "[2]": {"assay": "Induction of apoptosis in mouse BaF3 cells expressing PDGFR-alpha D842V mutant (unknown origin) assessed as early apoptotic cells at 1000 nM incubated for 48 hrs by V-PE/7-AAD staining based flow cytometry (reference value: 4.20 %)", "assay_type": "functional"}, "[3]": {"assay": "Induction of cell cycle arrest in mouse BaF3 cells expressing PDGFR-alpha D842V mutant (unknown origin) assessed as accumulation at S phase at 200 nM incubated for 24 hrs by PI staining based flow cytometry (reference value: 12.00 %)", "assay_type": "functional"}, "[4]": {"assay": "Induction of apoptosis in mouse BaF3 cells expressing PDGFR-alpha D842V mutant (unknown origin) assessed as late apoptotic cells at 1000 nM incubated for 48 hrs by V-PE/7-AAD staining based flow cytometry (reference value: 2.77 %)", "assay_type": "functional"}, "[5]": {"assay": "Induction of cell cycle arrest in mouse BaF3 cells expressing PDGFR-alpha D842V mutant (unknown origin) assessed as accumulation at G2/M phase at 40 nM incubated for 24 hrs by PI staining based flow cytometry (reference value: 34.85 %)", "assay_type": "functional"}, "[6]": {"assay": "Induction of apoptosis in mouse BaF3 cells expressing PDGFR-alpha D842V mutant (unknown origin) assessed as late apoptotic cells at 40 nM incubated for 48 hrs by V-PE/7-AAD staining based flow cytometry (reference value: 2.77 %)", "assay_type": "functional"}, "[7]": {"assay": "Induction of apoptosis in mouse BaF3 cells expressing PDGFR-alpha D842V mutant (unknown origin) assessed as necrotic cells at 200 nM incubated for 48 hrs by V-PE/7-AAD staining based flow cytometry (reference value: 0.75 %)", "assay_type": "functional"}, "[8]": {"assay": "Induction of apoptosis in mouse BaF3 cells expressing PDGFR-alpha D842V mutant (unknown origin) assessed as viable cells at 40 nM incubated for 48 hrs by V-PE/7-AAD staining based flow cytometry (reference value: 92.28 %)", "assay_type": "functional", "settings": "read-out: Activity; call rule not given here"}, "[9]": {"assay": "Induction of cell cycle arrest in mouse BaF3 cells expressing PDGFR-alpha D842V mutant (unknown origin) assessed as accumulation at G2/M phase at 200 nM incubated for 24 hrs by PI staining based flow cytometry (reference value: 34.85 %)", "assay_type": "functional"}, "[10]": {"assay": "cells", "settings": "Mus musculus, BaF3, 72 h"}, "[11]": {"assay": "Induction of cell cycle arrest in mouse BaF3 cells expressing PDGFR-alpha D842V mutant (unknown origin) assessed as accumulation at G0/G1 phase at 1000 nM incubated for 24 hrs by PI staining based flow cytometry (reference value: 51.77 %)", "assay_type": "functional"}, "[12]": {"assay": "Inhibition of cell viability of HEK293T cells incubated for 72 hrs by CCK8 assay", "assay_type": "toxicity, cell-based, HEK-293T", "settings": "human"}, "[13]": {"assay": "Induction of cell cycle arrest in mouse BaF3 cells expressing PDGFR-alpha D842V mutant (unknown origin) assessed as accumulation at S phase at 1000 nM incubated for 24 hrs by PI staining based flow cytometry (reference value: 12.00 %)", "assay_type": "functional"}, "[14]": {"assay": "Induction of cell cycle arrest in mouse BaF3 cells expressing PDGFR-alpha D842V mutant (unknown origin) assessed as accumulation at G0/G1 phase at 200 nM incubated for 24 hrs by PI staining based flow cytometry (reference value: 51.77 %)", "assay_type": "functional"}, "[15]": {"assay": "Induction of apoptosis in mouse BaF3 cells expressing PDGFR-alpha D842V mutant (unknown origin) assessed as viable cells at 200 nM incubated for 48 hrs by V-PE/7-AAD staining based flow cytometry (reference value: 92.28 %)", "assay_type": "functional", "settings": "read-out: Activity"}, "[16]": {"assay": "Induction of cell cycle arrest in mouse BaF3 cells expressing PDGFR-alpha D842V mutant (unknown origin) assessed as accumulation at S phase at 40 nM incubated for 24 hrs by PI staining based flow cytometry (reference value: 12.00 %)", "assay_type": "functional"}, "[17]": {"assay": "Induction of apoptosis in mouse BaF3 cells expressing PDGFR-alpha D842V mutant (unknown origin) assessed as early apoptotic cells at 200 nM incubated for 48 hrs by V-PE/7-AAD staining based flow cytometry (reference value: 4.20 %)", "assay_type": "functional"}, "[18]": {"tested_on": "BaF3", "settings": "Mus musculus, dose <= 1000.0 nM"}, "[19]": {"assay": "Induction of apoptosis in mouse BaF3 cells expressing PDGFR-alpha D842V mutant (unknown origin) assessed as late apoptotic cells at 200 nM incubated for 48 hrs by V-PE/7-AAD staining based flow cytometry (reference value: 2.77 %)", "assay_type": "functional"}, "[20]": {"assay": "Induction of apoptosis in mouse BaF3 cells expressing PDGFR-alpha D842V mutant (unknown origin) assessed as necrotic cells at 40 nM incubated for 48 hrs by V-PE/7-AAD staining based flow cytometry (reference value: 0.75 %)", "assay_type": "functional"}, "[21]": {"assay": "cells", "settings": "Mus musculus, BaF3, 72 h", "remark": "listed apart in the source"}, "[22]": {"assay": "Induction of apoptosis in mouse BaF3 cells expressing PDGFR-alpha D842V mutant (unknown origin) assessed as viable cells at 1000 nM incubated for 48 hrs by V-PE/7-AAD staining based flow cytometry (reference value: 92.28 %)", "assay_type": "functional", "settings": "read-out: Activity"}, "[23]": {"assay": "Induction of apoptosis in mouse BaF3 cells expressing PDGFR-alpha D842V mutant (unknown origin) assessed as necrotic cells at 1000 nM incubated for 48 hrs by V-PE/7-AAD staining based flow cytometry (reference value: 0.75 %)", "assay_type": "functional"}, "[24]": {"assay": "Induction of cell cycle arrest in mouse BaF3 cells expressing PDGFR-alpha D842V mutant (unknown origin) assessed as accumulation at G0/G1 phase at 40 nM incubated for 24 hrs by PI staining based flow cytometry (reference value: 51.77 %)", "assay_type": "functional"}, "[25]": {"assay": "Induction of cell cycle arrest in mouse BaF3 cells expressing PDGFR-alpha D842V mutant (unknown origin) assessed as accumulation at G2/M phase at 1000 nM incubated for 24 hrs by PI staining based flow cytometry (reference value: 34.85 %)", "assay_type": "functional"}, "[26]": {"molecular_target": "T1, Platelet-derived growth factor receptor alpha (Homo sapiens, UniProt P16234, D842V)", "T1 sequence (P16234 24-1089 D842V limits assumed)": "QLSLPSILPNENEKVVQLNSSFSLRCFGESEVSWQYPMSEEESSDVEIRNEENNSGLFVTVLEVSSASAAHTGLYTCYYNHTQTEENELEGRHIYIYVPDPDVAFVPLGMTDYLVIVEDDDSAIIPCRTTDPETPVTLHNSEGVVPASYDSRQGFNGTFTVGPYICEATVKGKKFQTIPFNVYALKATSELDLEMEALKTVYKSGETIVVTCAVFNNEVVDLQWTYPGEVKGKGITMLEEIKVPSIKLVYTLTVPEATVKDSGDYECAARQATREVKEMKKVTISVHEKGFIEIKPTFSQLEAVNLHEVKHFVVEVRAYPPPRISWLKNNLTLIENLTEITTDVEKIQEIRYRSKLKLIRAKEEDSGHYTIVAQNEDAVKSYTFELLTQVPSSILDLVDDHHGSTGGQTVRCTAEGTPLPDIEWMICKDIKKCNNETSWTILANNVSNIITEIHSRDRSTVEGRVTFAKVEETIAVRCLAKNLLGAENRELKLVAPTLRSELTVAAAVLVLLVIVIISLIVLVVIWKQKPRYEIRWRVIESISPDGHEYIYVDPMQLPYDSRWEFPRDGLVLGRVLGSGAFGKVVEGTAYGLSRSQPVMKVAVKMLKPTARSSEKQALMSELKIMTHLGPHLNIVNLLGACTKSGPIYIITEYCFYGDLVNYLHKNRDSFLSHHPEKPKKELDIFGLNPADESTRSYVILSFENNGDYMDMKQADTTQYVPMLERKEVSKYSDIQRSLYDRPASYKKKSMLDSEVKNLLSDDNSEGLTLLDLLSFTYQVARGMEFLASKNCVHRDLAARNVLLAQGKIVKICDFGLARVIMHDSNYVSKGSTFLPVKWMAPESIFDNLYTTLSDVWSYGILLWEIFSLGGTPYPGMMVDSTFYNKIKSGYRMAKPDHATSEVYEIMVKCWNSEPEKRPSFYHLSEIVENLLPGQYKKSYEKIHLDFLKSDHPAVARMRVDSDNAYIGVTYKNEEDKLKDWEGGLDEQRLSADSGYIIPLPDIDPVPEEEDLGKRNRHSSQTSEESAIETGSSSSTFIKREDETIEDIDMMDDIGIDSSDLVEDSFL", "assay": "Inhibition of PDGFR-alpha D842V mutant (unknown origin) expressed in mouse BaF3 cells", "assay_type": "cell-based"}, "[27]": {"molecular_target": "T1, Platelet-derived growth factor receptor alpha", "assay": "Inhibition of PDGFR-alpha D842V mutant (unknown origin) using Tyr 04 peptide as substrate incubated for 1 hr in presence of ATP by FRET-based Z'-Lyte assay"}}}
{"smiles": "c1cc2c3nc(ccc3c1)-n1cnc3ccc(cc31)OCCNC1CCN2CC1", "values": [{"measurement": "Activity", "setting": "[1]", "result": 3.2, "unit": "%"}, {"measurement": "Activity", "setting": "[2]", "result": 24.41, "unit": "%"}, {"measurement": "Activity", "setting": "[3]", "result": 7.5, "unit": "%"}, {"measurement": "Activity", "setting": "[4]", "result": 6.67, "unit": "%"}, {"measurement": "Activity", "setting": "[5]", "result": 34.25, "unit": "%"}, {"measurement": "Activity", "setting": "[6]", "result": 2.23, "unit": "%"}, {"measurement": "Activity", "setting": "[7]", "result": 0.14, "unit": "%"}, {"measurement": "viability at 0.04 µM", "setting": "[8]", "result": 94.5, "unit": "%"}, {"measurement": "Activity", "setting": "[9]", "result": 31.42, "unit": "%"}, {"measurement": "IC50", "setting": "[10]", "result": 64.1, "unit": "nM"}, {"measurement": "Activity", "setting": "[11]", "result": 65.32, "unit": "%"}, {"measurement": "IC50 at 72 h", "setting": "[12]", "result": 1050, "unit": "nM"}, {"measurement": "Activity", "setting": "[13]", "result": 7.21, "unit": "%"}, {"measurement": "Activity", "setting": "[14]", "result": 60.03, "unit": "%"}, {"measurement": "viability at 0.2 µM", "setting": "[15]", "result": 89.4, "unit": "%"}, {"measurement": "Activity", "setting": "[16]", "result": 9.94, "unit": "%"}, {"measurement": "Activity", "setting": "[17]", "result": 8.22, "unit": "%"}, {"measurement": "inhibition", "setting": "[18]", "result": "Not active; Less Pronounced As Compared To Avapritinib"}, {"measurement": "Activity", "setting": "[19]", "result": 2.27, "unit": "%"}, {"measurement": "Activity", "setting": "[20]", "result": 0.06, "unit": "%"}, {"measurement": "IC50", "setting": "[21]", "result": 27.6, "unit": "nM"}, {"measurement": "viability at 1 µM", "setting": "[22]", "result": 68.8, "unit": "%"}, {"measurement": "Activity", "setting": "[23]", "result": 0.07, "unit": "%"}, {"measurement": "Activity", "setting": "[24]", "result": 54.31, "unit": "%"}, {"measurement": "Activity", "setting": "[25]", "result": 26.13, "unit": "%"}]}
{"smiles": "Clc1cnc2nc1N1CCC(CC1)NCCCOc1ccc3ncn-2c3c1", "values": [{"measurement": "IC50", "setting": "[26]", "result": "> 1000", "unit": "nM"}, {"measurement": "IC50", "setting": "[27]", "result": "> 10", "unit": "µM"}]}
{"smiles": "CC1(COc2ccc3c(c2)ncn3-c2ccc3cccc(N4CCC(N)CC4)c3n2)COC1", "note": "[CRENOLANIB]", "values": [{"measurement": "IC50", "setting": "[10]", "result": 407, "unit": "nM"}, {"measurement": "IC50 at 72 h", "setting": "[12]", "result": 1680, "unit": "nM"}, {"measurement": "IC50", "setting": "[21]", "result": 23.7, "unit": "nM"}]}
